Values of other authors, collected in patent US7160560B2, “Skin-care composition” (L'Oreal S.A., priority 2003, dated 2007).

Assays:
[1] = test system: human keratinocytes
[2] = test system: human dermal fibroblasts

Which results are given for `CC1=N[C@H](C(=O)O)CCN1` [ectoin, (s)-1,4,5,6-tetrahydro-2-methyl-4-pyrimidinecarboxylic acid]?
signaling cascade brought about by UVA-radiation [1]: inhibits; UVA radiation-induced formation of mitochondrial DNA mutations [2]: inhibits
